Assay [1] is described as follows: Rat learned helplessness model (active avoidance). Conditions: helpless rats; for escape failures (Mean ± SEM) / inter-trial interval (ITI) crossings (Mean ± SEM): 32 mg/kg, po bid.
Procedure: In this model, rats are first exposed to inescapable foot shock to induce a helpless state which is then expressed by a subsequent failure to learn to avoid escapable foot shocks (active avoidance).
Helplessness was induced on Day 1 in 5 of the groups by exposing animals to inescapable foot shocks delivered through an electrified stainless steel grid floor every 15 seconds for 1 h. […] Treatment continued on days 2-5 with all subjects receiving test agent or vehicle twice daily (AM and PM). Active avoidance was tested 60 min after the morning dose on Days 3, 4 and 5. All rats were tested in a 2-compartment active avoidance chamber where delivery of foot shock was signaled by a light cue. The test session began with 5 min of free exploration after which 30 stimulus-shock trials were delivered during a 15 min period. Each trial lasted 30 seconds with an initial 24 second rest period, followed by a 6 second light cue presentation with foot shock delivered during the last 3 seconds. […] Failure to avoid full delivery of the foot shock (i.e., failing to cross during 3 second shock presentation) was considered an escape failure. Crossings to the opposite compartment of the shuttle box during the 24 second rest period were recorded as inter-trial interval (ITI) crossings. Escape failures and ITI crossings were analyzed by two way repeated measures ANOVA with treatment as a main factor and test session (i.e., day) as the repeated measure.
Assay [2] in a line: Rat forced swim test, second study (one administration 24 h prior to testing). Conditions: 10 mg/kg, ip, positive control, of 60 observations in 5 min, p < 0.05 vs vehicle (footnote a).
Procedure: In both procedures, rats were pre-exposed to a 15 min swim session (day 0) prior to the 5 min FST session which was conducted 24 h later (day 1).
In the second study, adult, male Sprague-Dawley rats (190-234 g, n=10 per group) were dosed on only one occasion immediately after the pre-swim i.e., 24 h prior to testing. […] Behavior was quantified during the 5 min test session using a time sampling technique where the actual behavior observed, i.e., immobility, climbing or swimming, was recorded every 5 seconds for a total of 60 observations. Results were analyzed by one way ANOVA followed by Dunnett's post hoc comparisons.
For assay [3] the following is noted: literature (Ardalan 2017; Cryan 2005; Koike 2014); acute treatment; cited from earlier work.

The source of these data is US20260355150A1 (Sumitomo Pharma America, Inc., priority 2022, published 2026).

For the compound `CN(C)CCCN1c2ccccc2CCc2ccccc21` [Imipramine], in assay [1] (32 mg/kg po bid), the “escape failures, significance” value was “significant reduction in escape failures”. The “escape failures (Mean ± SEM)” value in assay [1] (Day 3) is 3 ± 1; in assay [1] (Day 4, p < 0.05 vs helpless/vehicle (footnote a)) it was 3 ± 2^a; in assay [1] (Day 5, p < 0.05 vs helpless/vehicle (footnote a)), 2 ± 1^a. In addition, the results for the “inter-trial interval (ITI) crossings (Mean ± SEM)” value in assay [1] (Day 3), in assay [1] (Day 4) and in assay [1] (Day 5) were 17 ± 2, 12 ± 2 and 15 ± 2, respectively.

Take `CNC1(c2ccccc2Cl)CCCCC1=O` (stereo not drawn) [Ketamine]: the “Immobility frequency (Mean ± SEM)” value in assay [2] is 22.9 ± 3.5^a. Moreover, the “antidepressant-like effects in this dosing protocol (rat FST, dosed 24 h prior to testing)” value in assay [3] was “antidepressant-like effects”.
